Test results: patent publication US20260347843A1, “NERVOUS SYSTEM DELIVERY ENHANCER” (priority 2022, published 2026)

Legend:
[1] = ASO concentration in spinal cord and left hippocampus after intrathecal administration; assay type: in vivo; conditions: rat, coadministered with Mapt-targeting ASO of Table 2 (76 nmol, 400 μg per rat), 7 days
Experimental: In this Example, an ASO having the same configuration as the ASO used in Example 3 (the ASO described in Table 2) was used, and a nucleic acid was prepared by the same method as in Example 1.
The intrathecal administration of ASO and the measurement of the ASO concentration were performed by the following methods. A catheter was inserted into the spinal subarachnoid of an 8-week-old Slc:SD rat (male). When the rat was 9 weeks old, ASO and/or TGN-073 in an amount of 76 nmol (400 μg) per rat ([…]) was administered intrathecally. Hereinafter, the rats to which ASO alone was intrathecally administered are referred to as the “ASO single administration group”, and the rats to which ASO and TGN-073 were intrathecally administered together are referred to as the “ASO/TGN-073 coadministration group”. The spinal part and the left hippocampus were extirpated from the rats at 7 days after the intrathecal administration, and the ASO concentration in each tissue was evaluated by the same method as in Example 1.

[2] = Evaluation of central nervous system toxicity (acute tolerability score); assay type: in vivo, mouse; conditions: intraventricular
Experimental: On the ASO described in Table 2, the preparation of the nucleic acid, an in vivo experiment, and the evaluation of the target gene suppression effect were performed by the same methods as in Example 1. In this Example, however, the dose of the nucleic acid agent per mouse was 9.4 nmol (50 μg).
By the below-described methods, evaluation of central nervous system toxicity and evaluation of motor function were performed on mice after intraventricular administration.
In the evaluation of central nervous system toxicity, the behavior was evaluated, using the scoring system shown in FIG. 6, at 30 minutes, 1 hour, and 2 hours after the intraventricular administration. According to the scoring system shown in FIG. 6, the behaviors classified into five categories were evaluated (Categories 1 to 5 in FIG. 6). Each category comprises two behavior evaluation items. Each behavior evaluation item is rated in five stages from 0 to 4 points (Scores 0 to 4 in FIG. 6). A normal behavior is given 0 point, and higher toxicity is given a higher score. In each category, the higher score in the two behavior evaluation items is adopted as the score for the category. The total value of the scores for the five categories is defined as an acute tolerability score (0 to 20 points).

[3] = system: GFP expression in the central nervous system; assay: GFP expression from AAV9 vector in hippocampus-level coronal images after intraventricular administration; assay type: in vivo; conditions: coadministered with AAV9-CMV-hrGFP, TGN-073 250 μg/mouse, 3 weeks
Experimental: In this Example, a GFP expression AAV9 (AAV9-CMV-hrGFP) as an adeno-associated viral (AAV) vector, alone or in combination with TGN-073 (250 μg/mouse), was administered at a dose of 26× 109 vg/mouse to the left lateral ventricle of a 7-week-old ICR mouse (female). Hereinafter, the mice to which only the AAV vector was intraventricularly administered are referred to as the “AAV single administration group”, and the mice to which the AAV vector and TGN-073 were intraventricularly administered together are referred to as the “AAV/TGN-073 coadministration group”. At 3 weeks after the intraventricular administration, the mouse was subjected to perfusion fixation using 4% paraformaldehyde. The mouse was subjected to cryoprotective treatment using a solution of 10% to 30% sucrose dissolved in PBS, and then, a cut-piece having a thickness of 40 μm was produced using a microtome. Using a fluorescence microscope (VHS-7000, Keyence Corporation), the GFP fluorescence (hippocampus-level coronal image) was captured.

Mapt mRNA = Mapt mRNA expression level in the hippocampus after intraventricular administration (target gene suppression effect); assay type: in vivo, mouse; conditions: 7 days
Experimental: Seven-week-old female ICR mice anesthetized with 2.5 to 4% isoflurane were fixed to a brain stereotaxic apparatus. Then, skin between the ears was cut open 2 to 3 cm anteroposteriorly, and perforated 1 mm leftward and 0.2 mm posteriorly from the bregma using a 1 mm diameter drill. A Hamilton syringe was filled with the nucleic acid agent. Through the perforated site, a needle was inserted approximately 3 mm deep. The ASO at a dose of 0.95 nmol (5 μg) per mouse was administered into the left lateral ventricle (n=4 to 7/group). The group to which ASO and TGN-073 were coadministered (hereinafter, the group is referred to as the “ASO/TGN-073 coadministration group”) means that ASO mixed with TGN-073 was administered. […]
Next, quantitative RT-PCR was performed with TaqMan (Roche Applied Science). Primers used in quantitative RT-PCR were products designed and manufactured by Thermo Fisher Scientific Inc. (formerly known as Life Technologies Corp.) on the basis of the various numbers of genes. […] The ratio of the expression amount of Malat1 RNA to the expression amount of Actb mRNA (internal standard gene) was calculated, and a value standardized with respect to the value of the PBS-treated group was determined as a relative Malat1 RNA level. […]

Sod1 mRNA = Sod1 mRNA expression level in the hippocampus after intraventricular administration of siRNA; assay type: in vivo, mouse; conditions: coadministered with siRNA (7.0 nmol, 100 μg), 7 days

Compound: O=S(=O)(Nc1ncccc1OCc1ccccc1)c1ccccc1 [TGN-073, N-(3-benzyloxypyridin-2-yl)-benzene-sulfonamide]
- ASO concentration in the left hippocampus vs ASO single administration [1]: dramatic increase
- ASO concentration in the spinal part vs ASO single administration [1]: dramatic increase
- Central nervous system toxicity ([2]; TGN-073 single administration, 30 minutes, 1 hour, and 2 hours): no toxicity
- Acute tolerability score ([2]; TGN-073 single administration, 30 minutes, 1 hour, and 2 hours, scale 0 to 20 points): 0
- Acute tolerability score vs ASO single administration ([2]; coadministered with Mapt-targeting ASO (50 μg), 30 minutes, 1 hour, 2 hours): substantially the same acute tolerability score as the ASO single administration group
- Augmentation of neurotoxicity by TGN-073 coadministration ([2]; coadministered with Mapt-targeting ASO): no recognizable augmentation of neurotoxicity at all
- GFP expression amount vs AAV single administration [3]: increase in the expression amount
- Range of GFP expression in the central nervous system vs AAV single administration [3]: significantly wide range
- Target gene (Mapt) suppression effect in the hippocampus vs ASO single administration (Mapt mRNA; Example 7, coadministered with Mapt-targeting ASO of Table 6 (9.4 nmol, 50 μg), TGN-073-mes 0.125 mg/mouse per method): marked enhancement
- Target gene (Mapt) suppression effect in the hippocampus vs ASO single administration (Mapt mRNA; coadministered with Mapt-targeting ASO of Table 2 (9.4 nmol, 50 μg)): marked augmentation
- Target gene (Sod1) suppression effect in the brain (hippocampus) vs siRNA single administration (Sod1 mRNA): marked augmentation
